{"source": "patent US9056890B2", "about": "“WDHD1 peptides and vaccines including the same” (OncoTherapy Science Inc., priority 2010, dated 2015)", "key": {"[1]": {"tested_on": "peptide-pulsed TISI cells", "test": "IFN-gamma ELISPOT assay on CTLs induced with peptide", "format": "cell-based, human", "details": "CTLs from HLA-A*2402 positive donor after 3rd peptide stimulation, versus target cells not pulsed with peptide", "source_text": "Monocyte-derived dendritic cells (DCs) were used as antigen-presenting cells to induce cytotoxic T lymphocyte (CTL) responses against peptides presented on human leukocyte antigen (HLA). DCs were generated in vitro as described elsewhere (Nakahara S et al., Cancer Res 2003, 63(14): 4112-8). Specifically, peripheral blood mononuclear cells isolated from a normal volunteer (HLA-A*2402 positive) by Ficoll-Plaque (Pharmacia) solution were separated by adherence to a plastic tissue culture dish (Becton Dickinson) so as to enrich them as the monocyte fraction. The monocyte-enriched population was cultured in the presence of 1000 U/ml of granulocyte-macrophage colony-stimulating factor (R&D System) and 1000 U/ml of interleukin (IL)-4 (R&D System) in AIM-V Medium (Invitrogen) containing 2% heat-inactivated autologous serum (AS). After 7 days of culture, the cytokine-induced DCs were pulsed with 20 micro-g/ml of each of the synthesized peptides in the presence of 3 micro-g/ml of beta 2-microglobulin for 3 hr at 37 degrees C. in AIM-V Medium. The generated cells appeared to express DC-associated molecules, such as CD80, CD83, CD86 and HLA class II, on their cell surfaces (data not shown). These peptide-pulsed DCs were then inactivated by X-irradiated (20 Gy) and mixed at a 1:20 ratio with autologous CD8+ T cells, obtained by positive selection with CD8 Positive Isolation Kit (Dynal). These cultures were set up in 48-well plates (Corning); each well contained 1.5×10^4 peptide-pulsed DCs, 3×10^5 CD8+ T cells and 10 ng/ml of IL-7 (R&D System) in 0.5 ml of AIM-V/2% AS medium. Three days later, these cultures were supplemented with IL-2 (CHIRON) to a final concentration of 20 IU/ml. On day 7 and 14, the T cells were further stimulated with the autologous peptide-pulsed DCs. The DCs were prepared each time by the same way described above. CTL was tested against peptide-pulsed TISI cells after the 3rd round of peptide stimulation on day 21 (Tanaka H et al., Br J Cancer 2001, 84(1): 94-9; Umano Y et al., Br J Cancer 2001, 84(8): 1052-7; Uchida N et al., Clin Cancer Res 2004, 10(24): 8577-86; Suda T et al., Cancer Sci 2006, 97(5): 411-9; Watanabe T et al., Cancer Sci 2005, 96(8): 498-506).\n(§1) Specifically, peptide-pulsed TISI (1×10^4/well) was prepared as stimulator cells. Cultured cells in 48 wells were used as responder cells. IFN-gamma ELISPOT assay and IFN-gamma ELISA assay were performed under manufacture procedure."}, "[2]": {"tested_on": "peptide-pulsed TISI cells", "test": "IFN-gamma ELISA assay of CTL lines", "format": "cell-based, human", "details": "target cells pulsed with corresponding peptide versus without peptide pulse", "experimental": "CTLs were expanded in culture using the method similar to the one described by Riddell et al. (Walter E A et al., N Engl J Med 1995, 333(16): 1038-44; Riddell S R et al., Nat Med 1996, 2(2): 216-23). A total of 5×10^4 CTLs were suspended in 25 ml of AIM-V/5% AS medium with 2 kinds of human B-lymphoblastoid cell lines, inactivated by Mitomycin C, in the presence of 40 ng/ml of anti-CD3 monoclonal antibody (Pharmingen). One day after initiating the cultures, 120 IU/ml of IL-2 were added to the cultures. The cultures were fed with fresh AIM-V/5% AS medium containing 30 IU/ml of IL-2 on days 5, 8 and 11 (Tanaka H et al., Br J Cancer 2001, 84(1): 94-9; Umano Y et al., Br J Cancer 2001, 84(8): 1052-7; Uchida N et al., Clin Cancer Res 2004, 10(24): 8577-86; Suda T et al., Cancer Sci 2006, 97(5): 411-9; Watanabe T et al., Cancer Sci 2005, 96(8): 498-506).\nas §1"}, "[3]": {"tested_on": "peptide-pulsed TISI cells", "test": "IFN-gamma ELISA assay of CTL clone established by limiting dilution", "format": "cell-based, human", "details": "target cells pulsed with peptide versus not pulsed; listed as WDHD1-A24-9-844", "experimental": "The dilutions were made to have 0.3, 1, and 3 CTLs/well in 96 round-bottomed micro titer plate (Nalge Nunc International). CTLs were cultured with 1×10^4 cells/well of 2 kinds of human B-lymphoblastoid cell lines, 30 ng/ml of anti-CD3 antibody, and 125 U/ml of IL-2 in a total of 150 micro-l/well of AIM-V Medium containing 5% AS. 50 micro-l/well of IL-2 were added to the medium 10 days later so to reach a final concentration of 125 U/ml IL-2. CTL activity was tested on the 14th day, and CTL clones were expanded using the same method as described above (Uchida N et al., Clin Cancer Res 2004, 10(24): 8577-86; Suda T et al., Cancer Sci 2006, 97(5): 411-9; Watanabe T et al., Cancer Sci 2005, 96(8): 498-506).\nas §1"}, "[4]": {"tested_on": "COS7 cells transfected with both WDHD1 and HLA-A*2402", "test": "Specific CTL activity against target cells expressing WDHD1 and HLA-A*2402", "format": "cell-based, African green monkey", "details": "COS7 expressing both WDHD1 and HLA-A*2402; listed as WDHD1-A24-9-844", "source_text": "(§2) The cDNA encoding an open reading frame of target genes or HLA-A*2402 was amplified by PCR. The PCR-amplified product was cloned into the expression vector. The plasmids were transfected into COS7, which is the target genes and HLA-A*2402-null cell line, using lipofectamine 2000 (Invitrogen) according to the manufacturer's recommended procedures. After 2 days from transfection, the transfected cells were harvested with versene (Invitrogen) and used as the target cells (5×10^4 cells/well) for CTL activity assay.\n(§3) The established CTL lines and clone raised against each peptide were examined for the ability to recognize target cells that express WDHD1 and HLA-A*2402 molecule. […] COS7 cells transfected with either full length of WDHD1 or HLA-A* 2402 were prepared as the controls."}, "[5]": {"tested_on": "COS7 cells transfected with either full length of WDHD1 or HLA-A*2402", "test": "Specific CTL activity against control target cells", "format": "cell-based, African green monkey", "details": "COS7 expressing either HLA-A*2402 or WDHD1 only", "source_text": "as §2, §3"}}, "note": "“Also recorded” adds a separate entry of the source."}
{"sequence": "RSVIFHNHL [SEQ ID NO: 6]", "values": [{"measurement": "peptide specific CTL activity, IFN-gamma production", "setting": "[1]", "value": "potent IFN-gamma production"}]}
{"sequence": "TWSPCGQYL [SEQ ID NO: 12]", "values": [{"measurement": "peptide specific CTL activity, IFN-gamma production", "setting": "[1]", "value": "potent IFN-gamma production"}, {"measurement": "IFN-gamma production of CTL lines", "setting": "[2]", "value": "potent IFN-gamma production"}]}
{"sequence": "KYASRSRKL [SEQ ID NO: 1]", "values": [{"measurement": "peptide specific CTL activity, IFN-gamma production", "setting": "[1]; listed as WDHD1-A24-9-798", "value": "not observed"}]}
{"sequence": "GYSNTATEW [SEQ ID NO: 13]", "values": [{"measurement": "peptide specific CTL activity, IFN-gamma production", "setting": "[1]", "value": "potent IFN-gamma production"}, {"measurement": "IFN-gamma production of CTL lines", "setting": "[2]", "value": "potent IFN-gamma production"}, {"measurement": "IFN-gamma production of CTL clone", "setting": "[3]", "value": "potent IFN-gamma production"}, {"measurement": "specific CTL activity of CTL clone", "setting": "[4]", "value": "potent CTL activity; also recorded: specific CTL activity"}, {"measurement": "specific CTL activity of CTL clone against controls", "setting": "[5]", "value": "no significant specific CTL activity"}]}
{"sequence": "SYLAWIGFSA [SEQ ID NO: 29]", "values": [{"measurement": "peptide specific CTL activity, IFN-gamma production", "setting": "[1]", "value": "potent IFN-gamma production"}, {"measurement": "IFN-gamma production of CTL lines", "setting": "[2]", "value": "potent IFN-gamma production"}]}
{"sequence": "EQFWRSVIF [SEQ ID NO: 19]", "values": [{"measurement": "peptide specific CTL activity, IFN-gamma production", "setting": "[1]", "value": "potent IFN-gamma production"}]}
{"sequence": "GYAICGLAW [SEQ ID NO: 14]", "values": [{"measurement": "peptide specific CTL activity, IFN-gamma production", "setting": "[1]", "value": "potent IFN-gamma production"}]}
{"sequence": "KQILHGDPL [SEQ ID NO: 8]", "values": [{"measurement": "peptide specific CTL activity, IFN-gamma production", "setting": "[1]", "value": "potent IFN-gamma production"}]}
